Experimental data published in patent publication US10981888B2, “Preparation method for tricyclic compounds” (BAYER CROPSCIENCE AKTIENGESELLSCHAFT, priority 2016, dated 2021).
Like-named read-outs stand apart in the source and are kept apart here.

Test: determination of log P values by HPLC on a reversed-phase column (C18), EEC Directive 79/831 Annex V.A8
Format: physicochemical
Experimental: ^a) Note regarding the determination of the log P values and mass detection: The determination of the given log P values was carried out in accordance with EEC Directive 79/831 Annex V.A8 by HPLC (High Performance Liquid Chromatography) on a reversed-phase column (C18). […] Mass detection is via an Agilent MSD system. […] Mass detection is via an Agilent MSD system. The mass stated is the peak of the molecular ion+hydrogen [M+H]^+ (molecular ion=sum of the masses of the most abundant natural isotopes of which the molecule consists). ^c) GC/MS (gas chromatography/mass spectrometry) on dimethylsilicone phase. 10 m DB-1, ID=0.18 mm, film thickness=0.4 μm; injector: 250° C., carrier gas flow rate: […] helium; detector: MSD: 280° C., FID: 320° C.; oven temperature: 50° C. (1 minute), 50° C.-320° C. ([…], 40° C./min), 320° C. (6.75 minutes); Kovacs Indices calibrated with alkane mixture.

[1] = reversed-phase C18 HPLC column (Zorbax Eclipse Plus C18); HPLC-MS method a): Zorbax Eclipse Plus C18, acetonitrile (0.1% formic acid) / water (0.09% formic acid), gradient 10% to 95% acetonitrile, 55° C., read-out: log P

Compound	chromatographic logP [1]	chromatographic logP
FC(F)(F)c1cc(C(F)(C(F)(F)F)C(F)(F)F)cc(Cl)c1-n1cc(I)cn1 [1-[2-chloro-4-(1,1,1,2,3,3,3-heptafluoropropan-2-yl)-6-(trifluoromethyl)phenyl]-4-iodo-1H-pyrazole]	5.19	
CN(C(=O)c1cc(-c2cnn(-c3c(Cl)cc(C(F)(C(F)(F)F)C(F)(F)F)cc3Cl)c2)cnc1Cl)C1(C#N)CC1 [2-chloro-N-(1-cyanocyclopropyl)-5-{1-[2,6-dichloro-4-(1,1,1,2,3,3,3-heptafluoropropan-2-yl)phenyl]-1H-pyrazol-4-yl}-N-methylnicotinamide]	4.31	
Cc1cc(C(F)(C(F)(F)F)C(F)(F)F)cc(C)c1-n1cccn1 [1-[4-(1,1,1,2,3,3,3-heptafluoropropan-2-yl)-2,6-dimethylphenyl]-1H-pyrazole]	4.3	
CN(C(=O)c1cc(-c2cnn(-c3c(Cl)cc(C(F)(C(F)(F)F)C(F)(F)F)cc3Cl)c2)cnc1Cl)C1CC1 [2-Chloro-N-cyclopropyl-5-{1-[2,6-dichloro-4-(1,1,1,2,3,3,3-heptafluoropropan-2-yl)phenyl]-1H-pyrazol-4-yl}-N-methylnicotinamide]	4.36	
FC(F)(F)c1cc(C(F)(C(F)(F)F)C(F)(F)F)cc(Br)c1-n1cccn1 [1-[2-bromo-4-(1,1,1,2,3,3,3-heptafluoropropan-2-yl)-6-(trifluoromethyl)phenyl]-1H-pyrazole]	4.42	
FC(F)(F)C(F)(c1cc(Cl)c(-n2cc(Br)cn2)c(Cl)c1)C(F)(F)F [4-bromo-1-[2,6-dichloro-4-(1,1,1,2,3,3,3-heptafluoropropan-2-yl)phenyl]-1H-pyrazole]	5.07	
CN(C(=O)c1cc(-c2cnn(-c3c(Cl)cc(C(F)(C(F)(F)F)C(F)(F)F)cc3OC(F)(F)F)c2)cnc1Cl)C1CC1 [2-Chloro-5-{1-[2-chloro-4-(1,1,1,2,3,3,3-heptafluoropropan-2-yl)-6-(trifluoromethoxy)phenyl]-1H-pyrazol-4-yl}-N-cyclopropyl-N-methylnicotinamide]	4.56	
CN(C(=O)c1cc(-c2cnn(-c3c(Br)cc(C(F)(C(F)(F)F)C(F)(F)F)cc3C(F)(F)F)c2)cnc1Cl)C1CC1 [5-{1-[2-bromo-4-(1,1,1,2,3,3,3-heptafluoropropan-2-yl)-6-(trifluoromethyl)phenyl]-1H-pyrazol-4-yl}-2-chloro-N-cyclopropyl-N-methylnicotinamide]	4.28	
Cc1cc(C(F)(C(F)(F)F)C(F)(F)F)cc(C)c1-n1cc(I)cn1 [1-[4-(1,1,1,2,3,3,3-heptafluoropropan-2-yl)-2,6-dimethylphenyl]-4-iodo-1H-pyrazole]	5.2	
CN(C(=O)c1cc(-c2cnn(-c3c(Cl)cc(C(F)(C(F)(F)F)C(F)(F)F)cc3C(F)(F)F)c2)cnc1Cl)C1CC1 [2-Chloro-5-{1-[2-chloro-4-(1,1,1,2,3,3,3-heptafluoropropan-2-yl)-6-(trifluoromethyl)phenyl]-1H-pyrazol-4-yl}-N-cyclopropyl-N-methylnicotinamide]	4.46	
FC(F)Oc1cc(C(F)(C(F)(F)F)C(F)(F)F)cc(Cl)c1-n1cc(I)cn1 [1-[2-chloro-6-(difluoromethoxy)-4-(1,1,1,2,3,3,3-heptafluoropropan-2-yl)phenyl]-4-iodo-1H-pyrazole]	4.82	
O=C(NC1CC1)c1cc(-c2cnn(-c3c(Br)cc(C(F)(C(F)(F)F)C(F)(F)F)cc3OC(F)(F)F)c2)cnc1Cl [5-{1-[2-Bromo-4-(1,1,1,2,3,3,3-heptafluoropropan-2-yl)-6-(trifluoromethoxy)phenyl]-1H-pyrazol-4-yl}-2-chloro-N-cyclopropylnicotinamide]	4.25	
FC(F)(F)c1cc(C(F)(C(F)(F)F)C(F)(F)F)cc(Cl)c1-n1cccn1 [1-[2-chloro-4-(1,1,1,2,3,3,3-heptafluoropropan-2-yl)-6-(trifluoromethyl)phenyl]-1H-pyrazole]	4.38	
CC1(C)OB(c2cnc(Cl)c(C(=O)NC3CC3)c2)OC1(C)C [2-chloro-N-cyclopropyl-5-(4,4,5,5-tetramethyl-1,3,2-dioxaborolan-2-yl)nicotinamide]		0.9
FC(F)(F)C(F)(c1cc(Cl)c(-n2cccn2)c(Cl)c1)C(F)(F)F [1-[2,6-dichloro-4-(1,1,1,2,3,3,3-heptafluoropropan-2-yl)phenyl]-1H-pyrazole]	4.22	
N#CC1(NC(=O)c2cc(-c3cnn(-c4c(Cl)cc(C(F)(C(F)(F)F)C(F)(F)F)cc4Cl)c3)cnc2Cl)CC1 [2-Chloro-N-(1-cyanocyclopropyl)-5-{1-[2,6-dichloro-4-(1,1,1,2,3,3,3-heptafluoropropan-2-yl)phenyl]-1H-pyrazol-4-yl}nicotinamide]	3.81	
Cc1cc(C(F)(C(F)(F)F)C(F)(F)F)cc(C(F)(F)F)c1-n1cccn1 [1-[4-(1,1,1,2,3,3,3-heptafluoropropan-2-yl)-2-methyl-6-(trifluoromethyl)phenyl]-1H-pyrazole]	4.4	
O=C(NC1CC1)c1cc(-c2cnn(-c3c(Cl)cc(C(F)(C(F)(F)F)C(F)(F)F)cc3OC(F)(F)F)c2)cnc1Cl [2-chloro-5-{1-[2-chloro-4-(1,1,1,2,3,3,3-heptafluoropropan-2-yl)-6-(trifluoromethoxy)phenyl]-1H-pyrazol-4-yl}-N-cyclopropylnicotinamide]	4.28	
FC(F)Oc1cc(C(F)(C(F)(F)F)C(F)(F)F)cc(Cl)c1-n1cccn1 [1-[2-chloro-6-(difluoromethoxy)-4-(1,1,1,2,3,3,3-heptafluoropropan-2-yl)phenyl]-1H-pyrazole]	4.04	
FC(F)(F)C(F)(c1cc(Cl)c(-n2cc(I)cn2)c(Cl)c1)C(F)(F)F [1-[2,6-dichloro-4-(1,1,1,2,3,3,3-heptafluoropropan-2-yl)phenyl]-4-iodo-1H-pyrazole]	5.17	
O=C(NC1CC1)c1cc(-c2cnn(-c3c(Cl)cc(C(F)(C(F)(F)F)C(F)(F)F)cc3C(F)(F)F)c2)cnc1Cl [2-Chloro-5-{1-[2-chloro-4-(1,1,1,2,3,3,3-heptafluoropropan-2-yl)-6-(trifluoromethyl)phenyl]-1H-pyrazol-4-yl}-N-cyclopropylnicotinamide]	4	
FC(F)(F)c1cc(C(F)(C(F)(F)F)C(F)(F)F)cc(Br)c1-n1cc(I)cn1 [1-[2-bromo-4-(1,1,1,2,3,3,3-heptafluoropropan-2-yl)-6-(trifluoromethyl)phenyl]-4-iodo-1H-pyrazole]	5.22	
Cc1cc(C(F)(C(F)(F)F)C(F)(F)F)cc(C)c1-n1cc(-c2cnc(Cl)c(C(=O)NC3(C#N)CC3)c2)cn1 [2-Chloro-N-(1-cyanocyclopropyl)-5-{1-[4-(1,1,1,2,3,3,3-heptafluoropropan-2-yl)-2,6-dimethylphenyl]-1H-pyrazol-4-yl}nicotinamide]	3.87	
